Calls of active or inactive are those of the source. The calls are words filed in the database; no cut-off is given here.
Experiments:
[1] = biological target: T1, Aurora kinase A (Homo sapiens) (UniProt O14965); test: Inhibition of human recombinant aurora-2 kinase expressed in Sf9 cells at 20 uM using kemptide as substrate by kinase-Glo luciferase assay
T1 sequence (whole entry): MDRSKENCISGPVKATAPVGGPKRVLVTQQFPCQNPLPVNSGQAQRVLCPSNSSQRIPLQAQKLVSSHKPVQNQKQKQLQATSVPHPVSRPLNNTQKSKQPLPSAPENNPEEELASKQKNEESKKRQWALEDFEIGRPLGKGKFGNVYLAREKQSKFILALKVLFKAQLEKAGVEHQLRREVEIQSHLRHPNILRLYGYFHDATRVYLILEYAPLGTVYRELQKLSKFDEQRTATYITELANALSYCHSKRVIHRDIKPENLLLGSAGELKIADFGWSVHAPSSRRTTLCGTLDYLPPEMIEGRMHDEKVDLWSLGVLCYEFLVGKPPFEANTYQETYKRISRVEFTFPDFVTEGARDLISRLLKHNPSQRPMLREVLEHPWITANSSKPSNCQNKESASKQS

[2] = tested on: MIA PaCa-2; test: Inhibition of cell proliferation of human MIAPaCa2 cells at 3 to 300 uM after 48 hrs by hematocytometry; assay type: functional, cell-based
[3] = tested on: MIA PaCa-2; test: Inhibition of cell proliferation of human MIAPaCa2 cells at 0.01 to 1000 uM after 4 days by MTS assay; assay type: functional, cell-based
[4] = tested on: PANC-1; test: Inhibition of cell proliferation of human PANC1 cells at 0.01 to 1000 uM after 4 days by MTS assay; assay type: functional, cell-based
[5] = tested on: Caco-2; test: Inhibition of cell proliferation of human Caco2 cells at 0.1 to 1000 uM after 4 days by MTS assay; assay type: functional, cell-based
[6] = tested on: COLO 320; test: Inhibition of cell proliferation of human COLO320 cells at 0.1 to 1000 uM after 4 days by MTS assay; assay type: functional
[7] = tested on: MCF7; test: Inhibition of cell proliferation of human MCF7 cells at 0.1 to 1000 uM after 4 days by MTS assay; assay type: functional, cell-based
[8] = tested on: T47D; test: Inhibition of cell proliferation of human T47D cells at 0.1 to 1000 uM after 4 days by MTS assay; assay type: functional, cell-based
[9] = tested on: MDA-MB-435; test: Inhibition of cell proliferation of human MDA-MB-435 cells at 0.1 to 1000 uM after 4 days by MTS assay; assay type: functional, cell-based
[10] = tested on: A2780; test: Inhibition of cell proliferation of human A2780 cells at 0.1 to 1000 uM after 4 days by MTS assay; assay type: functional, cell-based
[11] = tested on: ASPC1; test: Inhibition of cell proliferation of human AsPC1 cells at 0.1 to 1000 uM after 4 days by MTS assay; assay type: functional, cell-based

`O=S(=O)(Nc1ncccn1)c1ccc(Nc2ncnc3c2sc2ncccc23)cc1` was tested, and the inhibition [1] was “Active”.
`O=S(=O)(Nc1ncccn1)c1ccc(Nc2ncnc3c2oc2ccccc23)cc1` was tested, and the inhibition [1] was “Active”.
With `COc1cc2ncnc(Nc3cccc(Br)c3)c2cc1OC` the inhibition [1] was “Active”.
With `COc1cc2ncnc(N3CCN(C(=S)Nc4ccc(S(=O)(=O)Nc5ncccn5)cc4)CC3)c2cc1OC` the inhibition [1] was “Active”.
In the case of `COc1cc2[nH]c3ncnc(N4CCN(C(=S)Nc5ccc(S(=O)(=O)Nc6ncccn6)cc5)CC4)c3c2cc1OC`, the inhibition [2] is reported as “Active”, the inhibition [3] is reported as “Active” and the inhibition [4] is reported as “Active”. The inhibition [5] was “Active”, the inhibition [6] was “Active” and the inhibition [7] was “Active”. The inhibition [8] was “Active”, the inhibition [9] was “Active” and the inhibition [10] was “Active”. The inhibition [11] was “Active”.
